Experimental data: ChEMBL document CHEMBL5346891, “Overview of the development of HBV small molecule inhibitors” (Eur J Med Chem, 2023)
pEC50: −log10 of the molar value. Each block holds one compound with its values, some of them ahead of it.

Tests used:
Hepatitis B virus [1] = assay: Antiviral activity against HBV infected in human HepG2.2.15 cells assessed as reduction in HBeAg level measured after 144 hrs by ELISA; type: functional, organism-based; settings: HepG2.2.15, 144 h
Hepatitis B virus [2] = assay: Antiviral activity against HBV infected in human HepG2.2.15 cells assessed as reduction in HBsAg level measured after 144 hrs by ELISA; type: functional, organism-based; settings: HepG2.2.15, 144 h
Hepatitis B virus [3] = assay: Antiviral activity against HBV infected in human HepDES19 cells assessed as reduction in viral rcDNA level measured after 7 days by a branched chain DNA hybridization assay; type: functional, organism-based; settings: HepDES19, 168 h
Hepatitis B virus [4] = assay: Antiviral activity against HBV infected in human HepDES19 cells assessed as reduction in viral DNA replication measured after 72 hrs by q-PCR assay; type: functional, organism-based; settings: HepDES19, 72 h
Hepatitis B virus [5] = assay: Antiviral activity against HBV infected in human HepDES19 cells assessed as reduction in cccDNA accumulation by southern blot analysis; type: functional, organism-based
Hepatitis B virus [6] = assay: Antiviral activity against HBV infected in human HePAD38 cells assessed as inhibition of viral replication; type: functional, organism-based
Hepatitis B virus [7] = assay: Antiviral activity against HBV infected in human HepDE19 cells assessed as inhibition of viral replication; type: functional, organism-based
Hepatitis B virus [8] = assay: Antiviral activity against HBV infected in human HepG2.2.15 cells assessed as inhibition of viral replication; type: functional, organism-based
Hepatitis B virus [9] = assay: Antiviral activity against drug-resistant HBV infected in human HepG2.2.15 cells; type: functional, organism-based
Hepatitis B virus [10] = assay: Antiviral activity against HBV infected in human HepG2.2.15 cells; type: functional, organism-based
Hepatitis B virus [11] = assay: Antiviral activity against HBV infected in human HepG2 cells assessed as reduction in cccDNA transcription level; type: functional, organism-based
[12] = Modulation of capsid assembly in HBV genotype D assessed as inhibition of DNA replication; type: functional, Hepatitis B virus
[13] = Modulation of capsid assembly in HBV genotype H assessed as inhibition of viral replication; type: functional, Hepatitis B virus
[14] = Modulation of capsid assembly in HBV genotype C assessed as inhibition of viral replication; type: functional, Hepatitis B virus
[15] = Modulation of capsid assembly in HBV genotype G assessed as inhibition of viral replication; type: functional, Hepatitis B virus
[16] = Modulation of capsid assembly in HBV genotype F assessed as inhibition of viral replication; type: functional, Hepatitis B virus
[17] = Modulation of capsid assembly in HBV genotype E assessed as inhibition of viral replication; type: functional, Hepatitis B virus
[18] = Modulation of capsid assembly in HBV genotype B assessed as inhibition of viral replication; type: functional, Hepatitis B virus
[19] = Modulation of capsid assembly in HBV genotype A assessed as inhibition of viral replication; type: functional, Hepatitis B virus
Hepatitis B virus [20] = assay: Antiviral activity against HBV infected in human HepG2.2.15 cells assessed as reduction in HBsAg measured after 7 day by enzyme immunoassay relative to control; type: functional, organism-based; settings: HepG2.2.15, 168 h
Hepatitis B virus [21] = assay: Antiviral activity against HBV infected in human HepG2.2.15 cells assessed as reduction in HBsAg at 100 ug/ml measured after 7 day by enzyme immunoassay relative to control; type: functional; settings: HepG2.2.15, 168 h
Hepatitis B virus [22] = assay: Antiviral activity against HBV infected in human HepG2.2.15 cells assessed as reduction in HBeAg at 100 ug/ml measured after 7 day by enzyme immunoassay relative to control; type: functional; settings: HepG2.2.15, 168 h
Hepatitis B virus [23] = assay: Antiviral activity against HBV infected in human HepG2-NTCP12 cells assessed as reduction in viral DNA measured after 7 days by q-PCR assay; type: functional, organism-based; settings: HepG2-NTCP12, 168 h
Hepatitis B virus [24] = assay: Antiviral activity against HBV stably transfected in human HepDES19 cells assessed as reduction in viral DNA measured after 7 days by q-PCR assay; type: functional, organism-based; settings: HepDES19, 168 h
Hepatitis B virus [25] = assay: Antiviral activity against HBV infected in human HepG2-hNTCP cells assessed as reduction in HBeAg level; type: functional, organism-based
Hepatitis B virus [26] = assay: Antiviral activity against HBV infected in human HepG2-hNTCP cells assessed as reduction in pgRNA level; type: functional, organism-based
Hepatitis B virus [27] = assay: Antiviral activity against HBV infected in human HepG2.2.15 cells assessed as reduction in viral DNA level; type: functional, organism-based
Hepatitis B virus [28] = assay: Antiviral activity against HBV infected in human Primary hepatocyte cells assessed as reduction in HBsAg level; type: functional, organism-based
Hepatitis B virus [29] = assay: Antiviral activity against HBV infected in human Primary hepatocyte cells assessed as reduction in pgRNA level; type: functional, organism-based
Hepatitis B virus [30] = assay: Antiviral activity against HBV infected in human HepG2-hNTCP cells assessed as reduction in HBsAg level; type: functional, organism-based
Hepatitis B virus [31] = assay: Antiviral activity against HBV infected in human Primary hepatocyte cells assessed as reduction in HBeAg level; type: functional, organism-based
Hepatitis B virus [32] = assay: Antiviral activity against HBV infected in human HePAD38 cells assessed as reduction in cccDNA level; type: functional, organism-based
Hepatitis B virus [33] = assay: Antiviral activity against HBV infected in human HepG2.2.15 cells assessed as reduction in cccDNA transcription; type: functional, organism-based

pEC50 (Hepatitis B virus [1]): 5.05
pEC50 (Hepatitis B virus [2]): 5.05
SMILES: C=C(C)[C@@H]1CC[C@]2(C(=O)OC)CC[C@]3(COC(=O)c4ccccc4)[C@H](CC[C@@H]4[C@@]5(C)CC[C@H](OC(C)=O)C(C)(C)[C@@H]5CC[C@]43C)[C@H]12

pEC50 (Hepatitis B virus [3]): 6.40
pEC50 (Hepatitis B virus [4]): 6.59
SMILES: COc1ccc(CO/N=C(\C)c2c(C)cc(=O)n(O)c2O)cc1

pEC50 (Hepatitis B virus [4]): 6.30
SMILES: COc1ccccc1CO/N=C(\C)c1c(C)cc(=O)n(O)c1O

pEC50 (Hepatitis B virus [3]): 6.48
pEC50 (Hepatitis B virus [4]): 6.49
SMILES: C/C(=N\OCc1ccccc1F)c1c(C)cc(=O)n(O)c1O

pEC50 (Hepatitis B virus [5]): 5.52
SMILES: Cc1nc2cc(NC(=O)c3ccc(S(=O)(=O)N(C)Cc4ccccc4)cc3)ccc2s1

pEC50 (Hepatitis B virus [6]): 7.74
pEC50 (Hepatitis B virus [7]): 7.57
pEC50 (Hepatitis B virus [8]): 7.77
SMILES: CCOC(=O)C1=C(CN2CCN3C(=O)N(CC(C)(C)C(=O)O)C[C@@H]3C2)N=C(c2nccs2)N[C@H]1c1cccc(F)c1C [LINVENCORVIR]

SMILES: CCOC(=O)C1=C(CN2CCOCC2)NC(c2nccs2)=N[C@H]1c1ccc(F)cc1Br
pEC50 (Hepatitis B virus [9]): 8.00
pEC50 (Hepatitis B virus [10]): 9.00

pEC50 (Hepatitis B virus [11]): 7.70
SMILES: CN[C@@H](C)C(=O)N[C@H]1CN(S(=O)(=O)c2cccc(S(=O)(=O)N3CC[C@H]4CC[C@@H](C(=O)NC(c5ccccc5)c5ccccc5)N4C(=O)[C@@H](NC(=O)[C@H](C)NC)C3)c2)CC[C@H]2CC[C@@H](C(=O)NC(c3ccccc3)c3ccccc3)N2C1=O

pEC50 (Hepatitis B virus [5]): 5.00
SMILES: O=C(CN(c1cc(C(F)(F)F)ccc1Cl)S(=O)(=O)c1ccccc1)NCc1ccncc1

pEC50 (Hepatitis B virus [4]): 6.27
SMILES: C/C(=N\OCc1ccccc1)c1c(C)cc(=O)n(O)c1O

SMILES: C[C@H](NS(=O)(=O)c1cc(C(=O)Nc2ccc(F)c(C#N)c2)n(C)c1)C(F)(F)F [BERSACAPAVIR]
pEC50 [12]: 7.77
pEC50 [13]: 8.00
pEC50 [14]: 8.00
pEC50 [15]: 8.00
pEC50 [16]: 8.00
pEC50 [17]: 8.00
pEC50 [18]: 8.00
pEC50 [19]: 8.00

pEC50 (Hepatitis B virus [4]): 6.34
SMILES: C/C(=N\OCc1ccc(C)cc1)c1c(C)cc(=O)n(O)c1O

pEC50 (Hepatitis B virus [20]): 4.04
SMILES: O=C(/C=C/c1ccc(O)c(O)c1)O[C@@H]1C[C@](O)(C(=O)O)C[C@@H](OC(=O)/C=C/c2ccc(O)c(O)c2)[C@H]1O
inhibition at 100 µg/mL (Hepatitis B virus [21]): 81%
inhibition at 100 µg/mL (Hepatitis B virus [22]): 73%

pEC50 (Hepatitis B virus [23]): 7.11
pEC50 (Hepatitis B virus [24]): 5.82
SMILES: Cc1c(O)c2cc(Br)cnc2n(O)c1=O

pEC50 (Hepatitis B virus [25]): 5.74
pEC50 (Hepatitis B virus [26]): 5.74
pEC50 (Hepatitis B virus [27]): 6.76
pEC50 (Hepatitis B virus [30]): 5.74
SMILES: O=C(NCc1cnc(C(F)(F)F)s1)c1ccc2c(c1)NC(=O)c1ccccc1S2(=O)=O [VEBICORVIR]
pEC50 (Hepatitis B virus [28]): 5.74
pEC50 (Hepatitis B virus [29]): 5.74
pEC50 (Hepatitis B virus [31]): 5.74

pEC50 (Hepatitis B virus [23]): 7.24
pEC50 (Hepatitis B virus [24]): 6.54
SMILES: CC(=O)c1cc(O)c(=O)c(O)cc1C

pEC50 (Hepatitis B virus [20]): 4.50
SMILES: O=C(/C=C/c1ccc(O)c(O)c1)O[C@@H]1[C@H](O)C[C@@](O)(C(=O)O)C[C@H]1OC(=O)/C=C/c1ccc(O)c(O)c1
inhibition at 100 µg/mL (Hepatitis B virus [21]): 90%
inhibition at 100 µg/mL (Hepatitis B virus [22]): 81%

pEC50 (Hepatitis B virus [32]): 8.52
SMILES: Cc1c(C(=O)C(=O)NCC#N)c(C)n(C)c1C(=O)Nc1ccc(F)c(F)c1

pEC50 (Hepatitis B virus [33]): 6.80
SMILES: O=C1OCc2c1cc1ccc3c(c1c2-c1ccc2c(c1)OCO2)OCO3 [HELIOXANTHIN]

pEC50 (Hepatitis B virus [3]): 7.00
pEC50 (Hepatitis B virus [4]): 6.96
SMILES: C/C(=N\OCc1ccc(F)cc1)c1c(C)cc(=O)n(O)c1O
